In PubChem BioAssay (NCI):
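Dose response: 5 concentrations. Exposure: 48 h. Format: 96-well plates. Endpoint: linear interpolation; highest concentration if not reached. TGI: total growth inhibition.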

How the values were obtained:
Assay in all cases: NCI anticancer screen, dose series, 48 h
KM20L2 colon = system: KM20L2 colon
DLD-1 colon = system: DLD-1 colon
K-562 leukemia = system: K-562 leukemia
TK-10 renal = system: TK-10 renal
A549 NSCLC = system: A549 NSCLC
SF-295 CNS = system: SF-295 CNS
OVCAR-4 ovarian = system: OVCAR-4 ovarian
SN12C renal = system: SN12C renal
SK-MEL-28 melanoma = system: SK-MEL-28 melanoma
ACHN renal = system: ACHN renal
M19-MEL melanoma = system: M19-MEL melanoma
SNB-78 CNS = system: SNB-78 CNS

Structure (SMILES) | TGI (KM20L2 colon) | TGI (DLD-1 colon) | TGI (K-562 leukemia) | TGI (TK-10 renal) | TGI (A549 NSCLC) | TGI (SF-295 CNS) | TGI (OVCAR-4 ovarian) | TGI (SN12C renal) | TGI (SK-MEL-28 melanoma) | TGI (ACHN renal) | TGI (M19-MEL melanoma) | TGI (SNB-78 CNS)
CCOC(=O)c1oc2ccc([N+](=O)[O-])c3c2c1CCC3 | > 100 µM | > 100 µM | > 100 µM | 85.9 µM | > 100 µM | 53.9 µM | > 100 µM | > 100 µM | > 100 µM | > 100 µM | > 100 µM | > 75 µM
CCOC(=N)CC(=O)Nc1cccc(Cl)c1 | > 100 µM | > 100 µM | > 100 µM | > 100 µM | > 100 µM | > 100 µM | > 100 µM | > 100 µM | > 100 µM | > 100 µM | > 100 µM | > 100 µM
COc1ccc(-c2cc(-c3cc(Cl)cc(Br)c3O)[nH]c(=O)n2)cc1 | 38.6 µM | 38.4 µM | 41.7 µM | 47.3 µM | 33.7 µM | 32.7 µM | 26.5 µM | 32.3 µM | 44.7 µM | 27.7 µM | 46.4 µM | 64.2 µM
COc1cc2c(cc1OC)NC(=O)NC(Cc1ccc3c(c1)OCO3)CC2 (configuration not stated) | > 100 µM | > 100 µM | > 100 µM | > 100 µM | > 100 µM | > 100 µM | > 100 µM | > 100 µM | > 100 µM | > 100 µM | > 100 µM | > 100 µM
CSc1nc(NC2OC(COC(C)=O)C(OC(C)=O)C(OC(C)=O)C2OC(C)=O)c(-c2csc(N)n2)c(=O)n1C (configuration not stated) | > 100 µM | > 100 µM | > 100 µM | > 100 µM | > 100 µM | > 100 µM | 55.1 µM | > 100 µM | > 100 µM | > 100 µM | > 100 µM | 76.8 µM
COc1ccc2c(c1)CC1c3c(ccc(OC)c3O)CC2N1C (configuration not stated) | > 70 µM | > 100 µM | 58.9 µM | > 100 µM | > 100 µM | 47.1 µM | > 100 µM | > 100 µM | 43.8 µM | > 100 µM | 56.9 µM | 97 µM
CC1=C(Cl)C=CP(=O)(OC(C)C)C1 (configuration not stated) | > 100 µM | > 100 µM | > 100 µM | > 100 µM | > 100 µM | > 100 µM | > 100 µM | > 100 µM | > 100 µM | > 100 µM | > 100 µM | > 100 µM
O=[N+]([O-])c1ccccc1C=NC12CC3CC(CC(C3)C1)C2 | > 100 µM | > 100 µM | > 100 µM | > 100 µM | > 100 µM | > 100 µM | > 100 µM | > 100 µM | > 100 µM | > 100 µM | > 100 µM | > 100 µM
O=c1c(NO)c([N+](=O)[O-])cnn1-c1ccccc1 | 18.3 µM | 10.2 µM | 1.86 µM | 33.2 µM | 36.2 µM | 27 µM | 6.95 µM | 7.59 µM | 8.87 µM | 15.9 µM | 12.2 µM | 39.2 µM
C/C(=N\N=C(\[Se])N(C)C)c1ccccn1 | 12.6 µM | 16.9 µM | 23.6 µM | 18.1 µM | 13.5 µM | 12 µM | 13.9 µM | 14.9 µM | 18.9 µM | 13.2 µM | 5.02 µM | 15.9 µM
CCCCCCCCCCCCCCCC(=O)OCC1OC(OC)C2NP(=O)(N(CCCl)CCCl)OC1C2O (configuration not stated) | 46.7 µM | 14.5 µM | 24 µM | 31.7 µM | 39.9 µM | > 41.8 µM | 38 µM | 24.8 µM | 61.1 µM | 40.6 µM | > 75.3 µM | 19.2 µM
CCCCN[C@H]1C2C3CC4C5CC(C42)C1(C)C53 (some centres not stated) | > 100 µM | > 100 µM | > 100 µM | > 100 µM | > 100 µM | > 100 µM | > 100 µM | > 100 µM | > 100 µM | > 100 µM | > 100 µM | > 100 µM
COc1ccc(/C=c2/sc3n(c2=O)NC2(CCC(C)CC2)NN=3)cc1 (configuration not stated) | > 100 µM | > 100 µM | > 100 µM | > 100 µM | > 100 µM | > 100 µM | > 100 µM | > 100 µM | > 100 µM | > 100 µM | > 100 µM | > 100 µM
CCOC(=O)[C@H]1Nc2ccc([N+](=O)[O-])cc2C2c3ccccc3CC21 (some centres not stated) | 54 µM | > 100 µM | 52.2 µM | 77.3 µM | 91.2 µM | 31.2 µM | 49.8 µM | 43.2 µM | 31.9 µM | 72.3 µM | 70.7 µM | > 100 µM
Cc1ccc(-c2cc(=O)c3cc(C)c(C)c(C(=O)O)c3o2)cc1N | > 100 µM | > 100 µM | > 100 µM | > 100 µM | > 100 µM | > 100 µM | > 100 µM | > 100 µM | > 100 µM | > 100 µM | > 100 µM | > 100 µM
COc1ccc(/C(Cl)=C(\c2ccc(OCCN(C)C)cc2)c2ccc(OC(=O)C(C)(C)C)cc2)cc1 | 12.4 µM | 26.6 µM | 14.3 µM | 32.3 µM | 28.3 µM | 28 µM | 26.9 µM | 27.2 µM | 23.1 µM | 29.5 µM | 26.6 µM | 33.2 µM
